Data: the supplement of paper PMC10627819

How the values were obtained:
S. aureus DSM 20231 [1] = experiment: Bliss interaction score (quartile over a dose matrix) (fitness difference); higher = more antagonism (negative = synergy)
Summary of the method: (§1)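 Quartiles summarise the Bliss score over technical, biological and donor/recipient replicates, where the score is observed minus expected fitness under a product model. Expected fitness uses single-drug values inferred from combination data. Fitness is OD595 at entry into stationary phase over the plate's robust no-drug mean, capped at 1.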

S. aureus Newman [2] = experiment: as above
Summary of the method: as §1

S. pneumoniae D39V = experiment: as above
Summary of the method: as §1

B. subtilis 168 = experiment: as above
Summary of the method: as §1

S. aureus DSM 20231 [3] = experiment: fitness (endpoint OD595 vs no drug) (fraction); higher = more growth
Summary of the method: (§2)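 Fitness was measured as bacterial growth in 384-well plates inoculated at OD595 0.01 (30 µl, or 55 µl for S. pneumoniae). Media were TSB, LB Lennox or CY, at 37 °C. OD595 was read every 30 min for 14 h and background-subtracted against the first reading. Fitness is OD595 at the transition into stationary phase divided by the robust mean of no-drug control wells, capped at 1.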

S. aureus Newman [4] = experiment: as above
Summary of the method: as §2

[5] = first compound 0.75 µg/mL, partner 0.125 µg/mL
[6] = first compound 1.5 µg/mL, partner 0.125 µg/mL
[7] = first compound 3 µg/mL, partner 0.0312 µg/mL
[8] = first compound 3 µg/mL, partner 0.0625 µg/mL
[9] = first compound 3 µg/mL, partner 0.125 µg/mL
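Throughout, for Bliss interaction score (quartile over a dose matrix): first quartile when negative (synergy) and third quartile when positive (antagonism).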

Row | SMILES | Bliss interaction score (S. aureus DSM 20231 [1]) | Bliss interaction score (S. aureus Newman [2]) | Bliss interaction score (S. pneumoniae D39V) | Bliss interaction score (B. subtilis 168) | other results
1 | COc1c(N2C[C@@H]3CCCN[C@@H]3C2)c(F)cc2c(=O)c(C(=O)O)cn(C3CC3)c12 [Moxifloxacin] + C/C(=C\C(=O)OCCCCCCCCC(=O)O)C[C@@H]1OC[C@H](C[C@@H]2O[C@H]2[C@@H](C)[C@H](C)O)[C@@H](O)[C@H]1O [Pseudomonic acid] | -0.019 | 0.0227 | 0.072 | 0.0399 | –
2 | O=C(N[C@H](CO)[C@H](O)c1ccc([N+](=O)[O-])cc1)C(Cl)Cl [Chloramphenicol] + CCC[C@@H]1C[C@@H](C(=O)N[C@@H]([C@H]2O[C@H](SC)[C@H](O)[C@@H](O)[C@H]2O)[C@H](C)Cl)N(C)C1 [Clindamycin] | 0.0541 | -0.0758 | 0.155 | – | fitness (S. aureus DSM 20231 [3]; first compound 0.75 µg/mL, partner 0.0625 µg/mL): 0.0956; fitness (S. aureus DSM 20231 [3]; [5]): 0.0527; fitness (S. aureus DSM 20231 [3]; [6]): 0.0897; fitness (S. aureus DSM 20231 [3]; [7]): 0.137; fitness (S. aureus DSM 20231 [3]; [8]): 0.0841; fitness (S. aureus DSM 20231 [3]; [9]): 0.0677; fitness (S. aureus Newman [4]; first compound 0.75 µg/mL, partner 0.0312 µg/mL): 0.539; fitness (S. aureus Newman [4]; [5]): 0.0906; fitness (S. aureus Newman [4]; first compound 1.5 µg/mL, partner 0.0312 µg/mL): 0.392; fitness (S. aureus Newman [4]; [6]): 0.0591; fitness (S. aureus Newman [4]; [7]): 0.11; fitness (S. aureus Newman [4]; [8]): 0.0976; fitness (S. aureus Newman [4]; [9]): 0.0645
3 | O=C(O[C@@H]1Cc2c(O)cc(O)cc2O[C@@H]1c1cc(O)c(O)c(O)c1)c1cc(O)c(O)c(O)c1 [EGCG] + CO[C@@]12[C@H](COC(N)=O)C3=C(C(=O)C(C)=C(N)C3=O)N1C[C@@H]1N[C@@H]12 [MitomycinC] | -0.0345 | 0.051 | 0.0987 | -0.0639 | –
4 | N[C@@H]1CONC1=O [CycloserineD] + CC[C@H]1OC(=O)[C@H](C)[C@@H](O[C@H]2C[C@@](C)(OC)[C@@H](O)[C@H](C)O2)[C@H](C)[C@@H](O[C@@H]2O[C@H](C)C[C@H](N(C)C)[C@H]2O)[C@](C)(O)C[C@@H](C)C(=O)[C@H](C)[C@@H](O)[C@]1(C)O [Erythromycin] | -0.043 | -0.0485 | 0.0918 | 0.077 | –
5 | CC(=O)OC[C@H]1O[C@@H]([S-])[C@H](OC(C)=O)[C@@H](OC(C)=O)[C@@H]1OC(C)=O.CCP(CC)CC.[Au+] [Auranofin] + C[n+]1ccc(-c2cc[n+](C)cc2)cc1 [Paraquat] | -0.0369 | -0.0941 | 0.0914 | -0.0338 | –
6 | N[C@@H]1CONC1=O [CycloserineD] + COc1cc(Cc2cnc(N)nc2N)cc(OC)c1OC [Trimethoprim] | -0.0585 | -0.067 | 0.0932 | 0.0782 | –
7 | CC(=O)OC[C@H]1O[C@@H]([S-])[C@H](OC(C)=O)[C@@H](OC(C)=O)[C@@H]1OC(C)=O.CCP(CC)CC.[Au+] [Auranofin] + Cc1cc(NS(=O)(=O)c2ccc(N)cc2)no1 [Sulfamethoxazol] | -0.0419 | -0.0374 | 0.088 | -0.0445 | –
8 | N[C@@H]1CONC1=O [CycloserineD] + O=C1CN(/N=C/c2ccc([N+](=O)[O-])o2)C(=O)N1 [Nitrofurantoin] | 0.0785 | -0.0425 | 0.197 | 0.173 | –
9 | CC(=O)O[C@H]1C[C@@]2(C)[C@@H](C[C@@H](O)[C@H]3[C@@]4(C)CC[C@@H](O)[C@@H](C)[C@@H]4CC[C@@]32C)/C1=C(\CCC=C(C)C)C(=O)O [Fusidic acid] + C/C(=C\C(=O)OCCCCCCCCC(=O)O)C[C@@H]1OC[C@H](C[C@@H]2O[C@H]2[C@@H](C)[C@H](C)O)[C@@H](O)[C@H]1O [Pseudomonic acid] | 0.0339 | 0.031 | 0.1 | -0.0331 | –
